According to US8614215B2, “Quinoxaline inhibitors of phosphoinositide-3-kinases (PI3Ks)” (Merck Serono SA, priority 2007, dated 2013):

These molecules were tested on Human recombinant GST-PI3K (assay: PI3K induced-lipid phosphorylation, neomycin-SPA scintillation proximity assay). Settings: Human recombinant GST-PI3K, SPA.
Type: biochemical
Excerpt: The efficacy of compounds of the invention in inhibiting the PI3K induced-lipid phosphorylation may be tested in the following binding assay. The assay combines the scintillation proximity assay technology (SPA, Amersham) with the capacity of neomycin (a polycationic antibiotic) to bind phospholipids with high affinity and specificity. The Scintillation Proximity Assay is based on the properties of weakly emitting isotopes (such as ^3H, ^125I, ^33P). Coating SPA beads with neomycin allows the detection of phosphorylated lipid substrates after incubation with recombinant PI3K and radioactive ATP in the same well, by capturing the radioactive phospholipids to the SPA beads through their specific binding to neomycin.
To a 96 wells MTP containing 10 μL of the test compound of Formula (I) (solubilized in 10% DMSO; […]), the following assay components are added: 1) 10 μL of lipid micelles 2) 20 μL of Kinase buffer ([^33P]γATP162 μM/300 nCi, MgCl2 2.5 mM, DTT 2.5 mM, Na3VO4 25 uM in Hepes 40 mM, pH 7.4) and 3) 10 μL (100 ng) of Human recombinant GST-PI3K (in Hepes 40 mM, pH 7.4, ethylenglycol 4%). After incubation at room temperature for 120 minutes, with gentle agitation, the reaction is stopped by addition of 200 μL of a solution containing 250 μg of neomycin-coated PVT SPA beads, ATP 60 mM and EDTA 6.2 mM in PBS. The assay is further incubated at room temperature for 60 minutes with gentle agitation to allow binding of phospholipids to neomycin-SPA beads. After precipitation of the neomycin-coated PVT SPA beads for 5 minutes at 1500×g, radioactive PtdIns(3)P is quantified by scintillation counting in a Wallac MicroBeta™ plate counter.
The values indicated in Table I below refer to the IC50 (μM) with respect to PI3K, i.e. the amount necessary to achieve 50% inhibition of said target. Said values show a considerable inhibitory potency of quinoxaline compounds with regard to PI3K.
In the case of `COc1cc(Nc2nc3ccccc3nc2NS(=O)(=O)c2cn(C)cn2)cc(C(=O)NCCO)c1` [Example 67, N-(2-Hydroxyethyl)-3-methoxy-5-[(3-{[(1-methyl-1H-imidazol-4-yl)sulfonyl]amino}quinoxalin-2-yl)amino]benzamide], the IC50 is reported as 0.1 µM. Molecule `COc1ccc(CCO)c(Nc2nc3ccccc3nc2NS(=O)(=O)c2ccc(NC(=O)CO)cc2)c1` [Example 69, 2-Hydroxy-N-(4-{[(3-{[2-(2-hydroxyethyl)-5-methoxyphenyl]amino}quinoxalin-2-yl)amino]sulfonyl}phenyl)acetamide] has an IC50 of 0.065 µM. `COc1ccc(CCO)c(Nc2nc3ccccc3nc2NS(=O)(=O)c2ccc(C)[n+]([O-])c2)c1` [Example 33, N-(3-{[2-(2-Hydroxyethyl)-5-methoxyphenyl]amino}quinoxalin-2-yl)-6-methylpyridine-3-sulfonamide 1-oxide] gave an IC50 of 0.106 µM. Work on `COc1ccc(CC2CCS(=O)(=O)CC2)c(Nc2nc3ccccc3nc2NS(=O)(=O)c2cn(C)cn2)c1` [Example 26, N-[3-({2-[(1,1-dioxidotetrahydro-2H-thiopyran-4-yl)methyl]-5-methoxyphenyl}amino)auinoxalin-2-yl]-1-methyl-1H-imidazole-4-sulfonamide] yielded an IC50 of 0.03 µM. With `COc1ccc(CCO)c(Nc2nc3ccccc3nc2NS(=O)(=O)c2ccc(C(=O)N(C)C)cc2)c1` [Example 32, 4-{[(3-{[2-(2-Hydroxyethyl)-5-methoxyphenyl]amino}quinoxalin-2-yl)amino]sulfonyl}-N,N-dimethylbenzamide] the IC50 was 0.25 µM. `COc1ccc(CCS(C)(=O)=O)c(Nc2nc3ccccc3nc2NS(=O)(=O)c2cn(C)c(CN(C)C)n2)c1` [Example 65, 2-[(Dimethylamino)methyl]-N-[3-({5-methoxy-2-[2-(methylsulfonyl)ethyl]phenyl}amino)quinoxalin-2-yl]-1-methyl-1H-imidazole-4-sulfonamide] was tested, and the IC50 was 0.087 µM. `COc1ccc(CCS(C)(=O)=O)c(Nc2nc3ccccc3nc2NS(C)(=O)=O)c1` [Example 44, N-[3-({5-Methoxy-2-[2-(methylsulfonyl)ethyl]phenyl}amino)quinoxalin-2-yl]methanesulfonamide] was tested, and the IC50 was 0.2 µM. With `CCS(=O)(=O)Nc1nc2ccccc2nc1Nc1cc(OC)ccc1CCS(C)(=O)=O` [Example 51, N-[3-({5-Methoxy-2-[2-(methylsulfonyl)ethyl]phenyl}amino)quinoxalin-2-yl]ethanesulfonamide] the IC50 was 0.088 µM. Work on `COc1ccc(CCO)c(Nc2nc3ccccc3nc2NS(=O)(=O)c2cccnc2)c1` [Example 27, N-(3-{[2-(2-hydroxyethyl)-5-methoxyphenyl]amino}quinoxalin-2-yl)pyridine-3-sulfonamide] yielded an IC50 of 0.04 µM. Molecule `COc1ccc(CC2CCCCC2)c(Nc2nc3ccccc3nc2NS(=O)(=O)c2cn(C)cn2)c1` [Example 20, N-(3-{[2-(cyclohexylmethyl)-5-methoxyphenyl]amino}quinoxalin-2-yl)-1-methyl-1H-imidazole-4-sulfonamide] has an IC50 of 0.45 µM. Work on `COc1ccc(CC2CCSCC2)c(Nc2nc3ccccc3nc2NS(=O)(=O)c2ccc(CN(C)C)cc2)c1` [Example 88, 4-[(dimethylamino)methyl]-N-(3-{[5-methoxy-2-(tetrahydro-2H-thiopyran-4-ylmethyl)phenyl]amino}quinoxalin-2-yl)benzenesulfonamide] yielded an IC50 of 0.035 µM. With `COc1ccc(CC2CCC(O)CC2)c(Nc2nc3ccccc3nc2NS(=O)(=O)c2ccc(CN(C)C)cc2)c1` (stereo not shown) [Example 84, 4-[(dimethylamino)methyl]-N-[3-({2-[(4-hydroxycyclohexyl)methyl]-5-methoxyphenyl}amino)quinoxalin-2-yl]benzenesulfonamide] the IC50 was 0.026 µM. `COc1ccc(CC2CCCC2)c(Nc2nc3ccccc3nc2NS(=O)(=O)c2cn(C)cn2)c1` [Example 24, N-(3-{[2-(cyclopentylmethyl)-5-methoxyphenyl]amino}quinoxalin-2-yl)-1-methyl-1H-imidazole-4-sulfonamide] was tested, and the IC50 was 0.18 µM. `COc1ccc(CCO)c(Nc2nc3ccccc3nc2NS(C)(=O)=O)c1` [Example 37, N-(3-{[2-(2-Hydroxyethyl)-5-methoxyphenyl]amino}quinoxalin-2-yl)methanesulfonamide] gave an IC50 of 0.095 µM. For `COc1ccc(CCO)c(Nc2nc3ccccc3nc2NS(=O)(=O)CCCS(C)(=O)=O)c1` [Example 61, N-(3-{[2-(2-Hydroxyethyl)-5-methoxyphenyl]amino}quinoxalin-2-yl)-3-(methylsulfonyl)propane-1-sulfonamide], the IC50 was 0.12 µM. In the case of `CCCS(=O)(=O)Nc1nc2ccccc2nc1Nc1cc(OC)ccc1CCS(C)(=O)=O` [Example 53, N-[3-({5-Methoxy-2-[2-(methylsulfonyl)ethyl]phenyl}amino)quinoxalin-2-yl]propane-1-sulfonamide], the IC50 is reported as 0.087 µM. `COc1ccc(CCCO)c(Nc2nc3ccccc3nc2NS(=O)(=O)c2cn(C)c(CO)n2)c1` [Example 74, 2-(Hydroxymethyl)-N-(3-{[2-(3-hydroxypropyl)-5-methoxyphenyl]amino}quinoxalin-2-yl)-1-methyl-1H-imidazole-4-sulfonamide] was tested, and the IC50 was 0.084 µM. Molecule `COc1ccc(CCO)c(Nc2nc3ccccc3nc2NS(=O)(=O)c2ccc(CN3CCC(F)CC3)cc2)c1` [Example 90] has an IC50 of 0.043 µM. `COc1ccc(CCCS(C)(=O)=O)c(Nc2nc3ccccc3nc2NS(=O)(=O)c2cn(C)cn2)c1` [Example 68, N-[3-({5-Methoxy-2-[3-(methylsulfonyl)propyl]phenyl}amino)quinoxalin-2-yl]-1-methyl-1H-imidazole-4-sulfonamide] gave an IC50 of 0.05 µM. `COc1ccc(CCCO)c(Nc2nc3ccccc3nc2NS(=O)(=O)c2cn(C)cn2)c1` [Example 28, N-(3-{[2-(3-Hydroxypropyl)-5-methoxyphenyl]amino}quinoxalin-2-yl)-1-methyl-1H-imidazole-4-sulfonamide] was tested, and the IC50 was 0.021 µM. With `COc1ccc(CC2C[C@H]3CC[C@@H](C2)N3C)c(Nc2nc3ccccc3nc2NS(=O)(=O)c2cn(C)cn2)c1` (stereo partly drawn) [Example 15, N-{3-[(5-methoxy-2-{[(1R,5S)-8-methyl-8-azabicyclo[3.2.1]oct-3-yl]methyl}phenyl)amino]quinoxalin-2-yl}-1-methyl-1H-imidazole-4-sulfonamide] the IC50 was 0.11 µM. Work on `COCCNC(=O)c1cc(Nc2nc3ccccc3nc2NS(=O)(=O)c2cn(C)cn2)cc(OC)c1` [Example 80, 3-Methoxy-N-(2-methoxyethyl)-5-[(3-{[(1-methyl-1H-imidazol-4-yl)sulfonyl]amino}quinoxalin-2-yl)amino]benzamide] yielded an IC50 of 0.4 µM. With `COc1ccc(CCO)c(Nc2nc3ccccc3nc2NS(=O)(=O)CCCSC)c1` [Example 58, N-(3-{[2-(2-Hydroxyethyl)-5-methoxyphenyl]amino}quinoxalin-2-yl)-3-(methylthio)propane-1-sulfonamide] the IC50 was 0.075 µM. In the case of `COc1cc(Nc2nc3ccccc3nc2NS(=O)(=O)c2cccnc2)cc(C(=O)N2CCOCC2)c1` [Example 5, N-(3-{[3-methoxy-5-(morpholin-4-ylcarbonyl)phenyl]amino}quinoxalin-2-yl)pyridine-3-sulfonamide], the IC50 is reported as 3.1 µM.

Same assay, conditions: at 20 μM
With `COc1ccc(CC2CCCCC2)c(Nc2nc3ccccc3nc2NS(C)(=O)=O)c1` [Example 21, N-(3-{[2-(cyclohexylmethyl)-5-methoxyphenyl]amino}quinoxalin-2-yl)methanesulfonamide] the “PI3K inhibition at single concentration” value was 68% at 20 μM.
